Data reported in the CheMixHub viscosity set.
Values joined by “and” are separate entries in the source; they are usually repeats but may differ in a detail not shown here. Identical values can stand only once.

Experiment: xn = mol fraction of the nth substance listed

CCOC(=O)c1ccccc1 + Cc1ccccc1Cl
viscosity [mPa·s], 101 kPa
Conditions | 303.15 K | 313.15 K
x1 = 0.0262 | 0.899 | 0.753
x1 = 0.0785 | 0.926 | 0.772
x1 = 0.1304 | 0.952 | 0.793
x1 = 0.2081 | 0.996 | 0.826
x1 = 0.2594 | 1.022 | 0.846
x1 = 0.3343 | 1.067 | 0.881
x1 = 0.3851 | 1.099 | 0.906
x1 = 0.4613 | 1.149 | 0.945
x1 = 0.5356 | 1.208 | 0.99
x1 = 0.6108 | 1.274 | 1.041
x1 = 0.709 | 1.375 | 1.12
x1 = 0.8085 | 1.497 | 1.215
x1 = 0.9045 | 1.635 | 1.323

C1=CCCCC1 + ClC(Cl)(Cl)Cl
303.15 K, 101 kPa
Conditions | viscosity [mPa·s]
x1 = 0.1014 | 0.875
x1 = 0.2018 | 0.839
x1 = 0.3213 | 0.8
x1 = 0.4018 | 0.775
x1 = 0.5046 | 0.74
x1 = 0.5562 | 0.722
x1 = 0.6526 | 0.688
x1 = 0.7514 | 0.653
x1 = 0.9049 | 0.603

CCCCCCCCCBr + ClC(Cl)(Cl)Cl
101 kPa
Conditions | viscosity [mPa·s]
297.75 K, x1 = 0.0486 | 0.9597
297.75 K, x1 = 0.0978 | 1.013
297.75 K, x1 = 0.1959 | 1.12
297.75 K, x1 = 0.3924 | 1.327
297.75 K, x1 = 0.5939 | 1.527
297.75 K, x1 = 0.7974 | 1.744
303.55 K, x1 = 0.0959 | 0.926
303.55 K, x1 = 0.2498 | 1.086
303.55 K, x1 = 0.3966 | 1.22
303.55 K, x1 = 0.5928 | 1.381
303.55 K, x1 = 0.7755 | 1.526
313.65 K, x1 = 0.0515 | 0.7651
313.65 K, x1 = 0.0985 | 0.8039
313.65 K, x1 = 0.1952 | 0.8852
313.65 K, x1 = 0.3592 | 1.028
313.65 K, x1 = 0.5926 | 1.189
313.65 K, x1 = 0.7767 | 1.301

c1cscn1 + ClC(Cl)(Cl)Cl
298.15 K, 101 kPa
Conditions | viscosity [mPa·s]
x1 = 0.1198 | 0.9186
x1 = 0.2066 | 0.9327
x1 = 0.2139 | 0.933
x1 = 0.2899 | 0.9459
x1 = 0.3525 | 0.9561
x1 = 0.4862 | 0.9809
x1 = 0.592 | 0.994
x1 = 0.689 | 1.007
x1 = 0.7728 | 1.01
x1 = 0.8194 | 1.011
x1 = 0.8719 | 1.011
x1 = 0.9315 | 1.006

N#CCc1ccccc1 + ClC(Cl)C(Cl)Cl
Conditions | viscosity [mPa·s]
313.15 K, 101 kPa, x1 = 0.7131 | 1.645

C1=CCCCC1 + ClC(Cl)Cl
303.15 K, 101 kPa
Conditions | viscosity [mPa·s]
x1 = 0.1005 | 0.62
x1 = 0.2478 | 0.604
x1 = 0.3282 | 0.595
x1 = 0.4351 | 0.585
x1 = 0.4917 | 0.581
x1 = 0.629 | 0.575
x1 = 0.7454 | 0.573
x1 = 0.8452 | 0.571

N#CCc1ccccc1 + ClC=C(Cl)Cl
Conditions | viscosity [mPa·s]
303.15 K, 101 kPa, x1 = 0.819 | 1.455

N#CCc1ccccc1 + ClCCCl
101 kPa
Conditions | viscosity [mPa·s]
303.15 K, x1 = 0.9705 | 1.725
313.15 K, x1 = 0.648 | 1.165

CCC(C)CO (configuration not stated) + O
298.15 K, 101 kPa
Conditions | viscosity [mPa·s]
x2 = 0.0025 | 4.797
x2 = 0.0548 | 4.447
x2 = 0.0985 | 4.284
x2 = 0.1421 | 4.163
x2 = 0.1741 | 4.101
x2 = 0.1943 | 4.07
x2 = 0.2403 | 4.025
x2 = 0.2657 | 4.011
x2 = 0.2859 | 4.01
x2 = 0.2923 | 4.005
x2 = 0.3149 | 4.005

CCCC[N+]1(C)CCCC1.N#C[S-] + O
Conditions | viscosity [mPa·s]
298.15 K, 101 kPa, x1 = 0.9147 | 91.83

CCNC(C)=O + O
298.16 K, 101 kPa
Conditions | viscosity [mPa·s]
x2 = 0.0826 | 6.11
x2 = 0.1593 | 6.33
x2 = 0.2575 | 6.67
x2 = 0.3475 | 6.96
x2 = 0.427 | 7.14
x2 = 0.4728 | 7.18
x2 = 0.5438 | 7.12
x2 = 0.585 | 6.98
x2 = 0.7047 | 6.14
x2 = 0.7459 | 5.72

NCC(=O)NCC(=O)O + O
viscosity
Conditions | 293.15 K | 298.15 K | 303.15 K | 308.15 K | 313.15 K | 318.15 K | 323.15 K
100 kPa, x1 = 0.000887 | – | 0.9004 mPa·s | – | 0.7285 mPa·s | 0.6622 mPa·s | 0.6045 mPa·s | –
100 kPa, x1 = 0.00175 | – | 0.907 mPa·s | 0.8135 mPa·s | 0.7349 mPa·s | 0.6683 mPa·s | 0.6105 mPa·s | –
100 kPa, x1 = 0.002593 | – | 0.9129 mPa·s | 0.8194 mPa·s | 0.7408 mPa·s | 0.6742 mPa·s | 0.6162 mPa·s | –
100 kPa, x1 = 0.003411 | – | 0.9185 mPa·s | 0.8251 mPa·s | 0.7465 mPa·s | 0.6797 mPa·s | 0.6216 mPa·s | –
100 kPa, x1 = 0.004207 | – | 0.9239 mPa·s | 0.8307 mPa·s | 0.752 mPa·s | 0.685 mPa·s | 0.6269 mPa·s | –
100 kPa, x1 = 0.004983 | – | 0.9292 mPa·s | 0.836 mPa·s | 0.7573 mPa·s | 0.6904 mPa·s | 0.6322 mPa·s | –
100 kPa, x1 = 0.005739 | – | 0.9343 mPa·s | 0.8413 mPa·s | 0.7627 mPa·s | 0.6957 mPa·s | 0.6374 mPa·s | –
100 kPa, x1 = 0.006476 | – | 0.9394 mPa·s | 0.8465 mPa·s | 0.7679 mPa·s | 0.7006 mPa·s | 0.6425 mPa·s | –
101.3 kPa, x1 = 0.002 | 1.04 mPa·s and 1.04 mPa·s | – | 0.82 mPa·s and 0.82 mPa·s | – | 0.67 mPa·s and 0.67 mPa·s | – | 0.56 mPa·s and 0.56 mPa·s
101.3 kPa, x1 = 0.004 | 1.08 mPa·s and 1.08 mPa·s | – | 0.85 mPa·s and 0.85 mPa·s | – | 0.69 mPa·s and 0.69 mPa·s | – | 0.59 mPa·s and 0.59 mPa·s
101.3 kPa, x1 = 0.005 | 1.1 mPa·s and 1.1 mPa·s | – | 0.87 mPa·s and 0.87 mPa·s | – | 0.71 mPa·s and 0.71 mPa·s | – | 0.6 mPa·s and 0.6 mPa·s
101.3 kPa, x1 = 0.007 | 1.14 mPa·s and 1.14 mPa·s | – | 0.9 mPa·s and 0.9 mPa·s | – | 0.74 mPa·s and 0.74 mPa·s | – | 0.62 mPa·s and 0.62 mPa·s

O=C(O)/C=C\C(=O)O + O
viscosity [mPa·s], 101.32 kPa
Conditions | x1 = 0.0171 | x1 = 0.03648 | x1 = 0.06231 | x1 = 0.0943 | x1 = 0.145
298.15 K | 1.092 | 1.349 | 1.775 | 2.459 | –
313.15 K | 0.792 | 0.968 | 1.255 | 1.702 | 2.54
